Reference: paper PMC11651915, “Small molecule protein assembly modulators with pan-cancer therapeutic efficacy” (Open Biology, 2024)

Legend:
[1] = system: MCF7; experiment: Eurofins OncoPanel (CellTiter-Glo); assay type: cell-based; settings: Homo sapiens, 72 h, 3 days
[2] = system: UACC-257; experiment: cells; settings: Homo sapiens, UACC-257, 48 h
[3] = system: OVCAR-4; experiment: cells; settings: Homo sapiens, OVCAR-4, 48 h
[4] = system: A172; experiment: Eurofins OncoPanel (CellTiter-Glo); assay type: cell-based; settings: Homo sapiens, A 172, 72 h, 3 days
[5] = system: DU-145; experiment: cells; settings: Homo sapiens, DU-145, 48 h
[6] = system: SK-MEL-28; experiment: cells; settings: Homo sapiens, SK-MEL-28, 48 h
[7] = system: SNB-19; experiment: cells; settings: Homo sapiens, SNB-19, 48 h
[8] = system: NCI-H522; experiment: cells; settings: Homo sapiens, NCI-H522, 48 h
[9] = system: IGROV1; experiment: cells; assay type: cell-based; settings: Homo sapiens, IGROV-1, NCI-60, 48 h
[10] = system: SW-620; experiment: cells; assay type: cell-based; settings: Homo sapiens, NCI-60, 48 h
[11] = system: OVCAR-3; experiment: cells; settings: Homo sapiens, OVCAR-3, 48 h
[12] = system: FaDu; experiment: Eurofins OncoPanel (CellTiter-Glo); assay type: cell-based; settings: Homo sapiens, 72 h, 3 days
[13] = system: MDA-MB-435; experiment: cells; assay type: cell-based; settings: Homo sapiens, NCI-60, 48 h
[14] = system: Hs 294T; experiment: Eurofins OncoPanel (CellTiter-Glo); assay type: cell-based; settings: Homo sapiens, 72 h, 3 days
[15] = system: HCT-15; experiment: cells; settings: Homo sapiens, HCT-15, 48 h
[16] = system: SK-MEL-5; experiment: cells; settings: Homo sapiens, SK-MEL-5, 48 h
[17] = system: Hennes 20 cells; experiment: High density/low density 'arrest of proliferation' assay; assay type: cell-based, Chinese hamster; settings: Hennes 20, 72 h, AlamarBlue
[18] = system: A498; experiment: cells; settings: Homo sapiens, A498, 48 h
[19] = system: A549 and MRC-5 cells; experiment: Toxicity to A549 cancer line versus non-cancer MRC-5 cells; assay type: cell-based
[20] = system: HT29; experiment: cells; assay type: cell-based; settings: Homo sapiens, HT-29, NCI-60, 48 h
[21] = system: CCRF-CEM; experiment: cells; assay type: cell-based; settings: Homo sapiens, NCI-60, 48 h
[22] = system: KM12; experiment: cells; settings: Homo sapiens, KM12, 48 h
[23] = system: MDA MB 436; experiment: Eurofins OncoPanel (CellTiter-Glo); assay type: cell-based; settings: Homo sapiens, 72 h, 3 days
[24] = system: SN12C; experiment: cells; settings: Homo sapiens, 48 h
[25] = in vivo; settings: female, Balb/c, mouse, ip
[26] = system: SF-295; experiment: cells; settings: Homo sapiens, SF-295, 48 h
[27] = system: EKVX; experiment: cells; settings: Homo sapiens, 48 h
[28] = system: SU-DHL-10; experiment: Eurofins OncoPanel (CellTiter-Glo); assay type: cell-based; settings: Homo sapiens, SU-DHL10, 72 h, 3 days
[29] = system: A549/ATCC; experiment: cells; assay type: cell-based; settings: Homo sapiens, NCI-60, 48 h
[30] = system: MHH-PREB-1; experiment: Eurofins OncoPanel (CellTiter-Glo); settings: Homo sapiens, MHH-PREB-1, 72 h
[31] = system: SNB-75; experiment: cells; settings: Homo sapiens, SNB-75, 48 h
[32] = system: SW1353; experiment: Eurofins OncoPanel (CellTiter-Glo); assay type: cell-based; settings: Homo sapiens, 72 h, 3 days
[33] = system: NCI-H322M; experiment: cells; settings: Homo sapiens, 48 h
[34] = system: COLO 205; experiment: cells; assay type: cell-based; settings: Homo sapiens, NCI-60, 48 h
[35] = system: LNCaP C-33; experiment: In-house cancer cell viability screen (AlamarBlue); assay type: cell-based; settings: Homo sapiens, LnCAP-C33, 72 h
[36] = system: A549; experiment: In-house cancer cell viability screen (AlamarBlue); assay type: cell-based, human; settings: for IC50: Homo sapiens, AlamarBlue
[37] = system: PANC-1; experiment: In-house cancer cell viability screen (AlamarBlue); assay type: cell-based; settings: Homo sapiens, 72 h

CC(C)CCNc1ncnc2cc(N3CCN(c4ccc5c(NCCC(C)C)ncnc5c4)CC3)ccc12 [PAV-951]
IC50 [1]: 1.99 µM | GI50 [2]: 1.71 µM | CC50 ([2]; read-out: LC50): 5.98 µM | GI50 [3]: 0.452 µM | CC50 ([3]; read-out: LC50): 4.56 µM | IC50 [4]: 1.02 µM | GI50 [5]: 0.283 µM | CC50 ([5]; read-out: LC50): 2.83 µM | GI50 [6]: 1.33 µM | CC50 ([6]; read-out: LC50): 5.24 µM | GI50 [7]: 1.17 µM | CC50 ([7]; read-out: LC50): 5.18 µM | GI50 [8]: 1.77 µM | CC50 ([8]; read-out: LC50): 6.95 µM | GI50 [9]: 0.287 µM | GI50 [10]: 0.194 µM | GI50 [11]: 1.05 µM | CC50 ([11]; read-out: LC50): 4.79 µM | IC50 [12]: 0.523 µM | GI50 [13]: 0.273 µM | IC50 [14]: 1.1 µM | GI50 [15]: 0.173 µM | CC50 ([15]; read-out: LC50): 0.815 µM | GI50 [16]: 1.87 µM | CC50 ([16]; read-out: LC50): 9.12 µM | inhibitory effect at low (500 cells per well) versus high (15 000 cells per well) density [17]: difference between their inhibitory effects on low and high density-plated Hennes 20 cells | GI50 [18]: 1.86 µM | CC50 ([18]; read-out: LC50): 5.92 µM | toxicity to A549 cancer line compared with non-cancer MRC-5 cells [19]: selectively toxic to the A549 cancer line | GI50 [20]: 0.345 µM | GI50 [21]: 0.198 µM | GI50 [22]: 0.227 µM | CC50 ([22]; read-out: LC50): 3.85 µM | IC50 [23]: 1.46 µM | GI50 [24]: 0.28 µM | CC50 ([24]; read-out: LC50): 3.41 µM | MTD [25]: 2.5 mg/kg | GI50 [26]: 1.64 µM | CC50 ([26]; read-out: LC50): 5.59 µM | GI50 [27]: 1.75 µM | CC50 ([27]; read-out: LC50): 6.12 µM | IC50 [28]: 0.231 µM | GI50 [29]: 0.302 µM | IC50 [30]: 0.4 µM | GI50 [31]: 0.304 µM | CC50 ([31]; read-out: LC50): 4.14 µM | IC50 [32]: 2.21 µM | GI50 [33]: 1.2 µM | CC50 ([33]; read-out: LC50): 5.55 µM | GI50 [34]: 0.61 µM | IC50 [35]: 0.542 µM | change of potency when compound is added at the time of plating rather than 24 h later ([36]; A549): increased significantly | IC50 ([36]; A549 (treatment 0 h after plating)): 2.16 µM | IC50 ([36]; A549 (treatment 24 h after plating), 72 h): 10.9 µM | IC50 [37]: 0.244 µM
